Measured values from patent publication US20170121315A1, “HETEROBICYCLICALLY SUBSTITUTED 4-OXOBUTANE ACID DERIVATIVES AND USE THEREOF” (priority 2014, published 2017).

Assays:
Assay type in all cases: biochemical
MMP-13 = molecular target: T1, MMP-13 (Homo sapiens, UniProt P45452); assay: In vitro MMP-13 inhibition test; conditions: human MMP-13
T1 construct: purchased R&D Systems 511-MP
Description: (§1) The MMP-mediated amidolytic cleavage of a suitable peptide substrate leads to an increase in fluorescent light here too. The signal intensity of the fluorescent light is directly proportional to the enzyme activity. The active concentration of a test compound at which half the enzyme is inhibited (50% signal intensity of the fluorescent light) is reported as the IC50 value.
(§2) Recombinant MMP-13 (R&D Systems, 511-MP) is chemically activated in accordance with the manufacturer's instructions using APMA. 1 μl of the test compound to be analysed (as a solution in DMSO, suitable concentrations e.g. 1 nM to 30 μM) is pipetted into 24 μl of activated enzyme (final concentration e.g. 0.1 nM) in reaction buffer (50 mM Tris/HCl pH 7.5, 10 mM CaCl2, 150 mM NaCl, 0.05% Brij®-35) in a white 384-hole microtiter plate (MTP). The enzymatic reaction is started by adding the intramolecularly quenched Mca-Pro-Leu-Gly-Leu-Dpa(Dnp)-Ala-Arg-NH2 substrate (final concentration e.g. 10 μM; R&D Systems, ES-001), so as to result in a total test volume of 50 μl. The course of the MMP-13 reaction is measured by measuring the fluorescence intensity (excitation 320 nm, emission 410 nm) over a suitable period of time (e.g. over 120 min at a temperature of 32° C.).

MMP-16 = molecular target: T2, MMP-16 (Homo sapiens, UniProt P51512); assay: In vitro MMP-16 inhibition test; conditions: human MMP-16
T2 construct: purchased R&D Systems 1785-MP
Description: as §1
Recombinant MMP-16 (R&D Systems, 1785-MP) is enzymatically activated in accordance with the manufacturer's instructions using recombinant furin (R&D Systems, 1503-SE). 1 μl of the test compound to be analysed (as a solution in DMSO, suitable concentrations e.g. 1 nM to 30 μM) is pipetted into 24 μl of activated enzyme (final concentration e.g. 1 nM) in reaction buffer (50 mM Tris/HCl pH 7.5, 10 mM CaCl2, 150 mM NaCl, 0.05% Brij®-35) in a white 384-hole microtiter plate (MTP). The enzymatic reaction is started by adding the intramolecularly quenched Mca-Lys-Pro-Leu-Gly-Leu-Dpa(Dnp)-Ala-Arg-NH2 substrate (final concentration e.g. 5 μM; R&D Systems, ES-010), so as to result in a total test volume of 50 μl. The course of the MMP-16 reaction is measured by measuring the fluorescence intensity (excitation 320 nm, emission 410 nm) over a suitable period of time (e.g. over 120 min at a temperature of 32° C.).

MMP-3 = molecular target: T3, MMP-3 (Homo sapiens, UniProt P08254); assay: In vitro MMP-3 inhibition test; conditions: human MMP-3
T3 construct: purchased R&D Systems 513-MP
Description: as §1
as §2, with “MMP-3” for “MMP-13”, “513-MP)” for “511-MP)”, “2” for “0.1”, “Mca-Arg-Pro-Lys-Pro-Val-Glu-Nval-Trp-Arg-Lys(Dnp)-NH2” for “Mca-Pro-Leu-Gly-Leu-Dpa(Dnp)-Ala-Arg-NH2”, “ES-002),” for “ES-001),”

MMP-1 = molecular target: T4, MMP-1 (Homo sapiens, UniProt P03956); assay: In vitro MMP-1 inhibition test; conditions: human MMP-1
T4 construct: purchased R&D Systems 901-MP
T4 sequence (P03956 100-469): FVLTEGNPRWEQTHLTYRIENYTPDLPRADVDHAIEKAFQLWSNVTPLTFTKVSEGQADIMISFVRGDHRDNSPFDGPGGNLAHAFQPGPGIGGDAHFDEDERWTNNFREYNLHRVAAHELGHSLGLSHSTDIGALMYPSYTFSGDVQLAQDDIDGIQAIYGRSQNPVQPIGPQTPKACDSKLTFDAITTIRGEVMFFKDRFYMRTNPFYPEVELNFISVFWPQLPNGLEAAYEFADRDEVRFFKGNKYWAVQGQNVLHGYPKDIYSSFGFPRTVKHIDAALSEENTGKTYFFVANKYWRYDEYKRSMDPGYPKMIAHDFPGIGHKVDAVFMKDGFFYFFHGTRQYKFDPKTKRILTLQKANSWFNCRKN
Description: as §1
as §2, with “MMP-1” for “MMP-13”, “901-MP)” for “511-MP)”, “2” for “0.1”

T2 sequence (P51512 120-564 limits assumed): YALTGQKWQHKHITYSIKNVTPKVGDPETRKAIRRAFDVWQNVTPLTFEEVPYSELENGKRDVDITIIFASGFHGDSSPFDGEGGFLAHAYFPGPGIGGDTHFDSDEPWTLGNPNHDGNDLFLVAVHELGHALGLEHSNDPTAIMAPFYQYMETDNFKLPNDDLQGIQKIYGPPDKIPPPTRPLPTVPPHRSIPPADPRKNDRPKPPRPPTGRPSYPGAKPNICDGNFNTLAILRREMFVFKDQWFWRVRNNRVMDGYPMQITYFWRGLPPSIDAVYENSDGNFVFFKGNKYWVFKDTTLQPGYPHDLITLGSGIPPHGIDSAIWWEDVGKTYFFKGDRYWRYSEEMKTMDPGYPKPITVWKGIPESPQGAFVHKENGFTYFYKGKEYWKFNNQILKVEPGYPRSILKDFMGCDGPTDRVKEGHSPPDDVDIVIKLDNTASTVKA
T3 sequence (P08254 100-477): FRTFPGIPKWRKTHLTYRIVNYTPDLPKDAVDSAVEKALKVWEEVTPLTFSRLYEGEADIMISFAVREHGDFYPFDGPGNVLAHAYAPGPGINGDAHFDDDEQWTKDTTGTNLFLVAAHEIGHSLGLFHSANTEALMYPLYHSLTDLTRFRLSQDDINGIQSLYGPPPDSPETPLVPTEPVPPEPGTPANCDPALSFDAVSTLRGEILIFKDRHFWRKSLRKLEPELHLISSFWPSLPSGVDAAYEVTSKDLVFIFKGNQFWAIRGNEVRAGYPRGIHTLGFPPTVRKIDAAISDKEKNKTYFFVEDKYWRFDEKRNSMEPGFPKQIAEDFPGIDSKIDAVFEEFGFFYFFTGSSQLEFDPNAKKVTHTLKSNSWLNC

Row | SMILES | IC50 (MMP-13) | IC50 (MMP-16) | IC50 (MMP-3) | IC50 (MMP-1)
1 | O=C(CC(CCn1nnc2ccccc2c1=O)C(=O)O)c1cc2cc(OCCc3ccccc3Cl)ccc2o1 (racemic) [Example 1, (+/−)-4-{5-[2-(2-Chlorophenyl)ethoxy]-1-benzofur-2-yl}-4-oxo-2-[2-(4-oxo-1,2,3-benzotriazin-3(4H)-yl)ethyl]butanoic acid] | > 40 µM | > 40 µM | > 40 µM | > 40 µM
2 | O=C(CC(CCn1nnc2ccccc2c1=O)C(=O)O)c1cc2cc(OCC3CCCCC3)ccc2o1 (racemic) [Example 8, (+/−)-4-[5-(Cyclohexylmethoxy)-1-benzofur-2-yl]-4-oxo-2-[2-(4-oxo-1,2,3-benzotriazin-3(4H)-yl)ethyl]butanoic acid] | 22 µM | > 40 µM | > 40 µM | > 40 µM
3 | O=C(CC(CCn1nnc2ccccc2c1=O)C(=O)O)c1cc2cc(OCCCc3ccccc3)ccc2o1 (racemic) [Example 37, (+/−)-4-Oxo-2-[2-(4-oxo-1,2,3-benzotriazin-3(4H)-yl)ethyl]-4-[5-(3-phenylpropoxy)-1-benzofur-2-yl]butanoic acid] | 5.2 µM | > 40 µM | 39 µM | > 40 µM
4 | O=C(CC(CCn1nnc2ccccc2c1=O)C(=O)O)c1cc2cc(OCc3ccc(C(F)(F)F)cc3)ccc2o1 (racemic) [Example 44, (+/−)-4-Oxo-2-[2-(4-oxo-1,2,3-benzotriazin-3(4H)-yl)ethyl]-4-(5-{[4-(trifluoromethyl)benzyl]oxy}-1-benzofur-2-yl)butanoic acid] | 2.1 µM | > 40 µM | 23 µM | > 40 µM
5 | O=C(CC(CCn1nnc2ccccc2c1=O)C(=O)O)c1cc2cc(OCc3cccc(Cl)c3)ccc2o1 (racemic) [Example 50, (+/−)-4-{5-[(3-Chlorobenzyl)oxy]-1-benzofur-2-yl}-4-oxo-2-[2-(4-oxo-1,2,3-benzotriazin-3(4H)-yl)ethyl]butanoic acid] | 4 µM | > 40 µM | 34 µM | > 40 µM
6 | Cc1cccc(COc2ccc3oc(C(=O)CC(CCn4nnc5ccccc5c4=O)C(=O)O)cc3c2)c1 (racemic) [Example 51, (+/−)-4-{5-[(3-Methylbenzyl)oxy]-1-benzofur-2-yl}-4-oxo-2-[2-(4-oxo-1,2,3-benzotriazin-3(4H)-yl)ethyl]butanoic acid] | 11 µM | > 40 µM | > 40 µM | > 40 µM
7 | CCCOc1ccc2cc(C(=O)CC(CCn3nnc4ccccc4c3=O)C(=O)O)oc2c1 (racemic) [Example 58, (+/−)-4-Oxo-2-[2-(4-oxo-1,2,3-benzotriazin-3(4H)-yl)ethyl]-4-(6-propoxy-1-benzofur-2-yl)butanoic acid] | > 40 µM | > 40 µM | > 40 µM | > 40 µM
8 | O=C(CC(CCn1nnc2ccccc2c1=O)C(=O)O)c1cc2ccc(OCCCC3CCCCC3)cc2o1 (racemic) [Example 71, (+/−)-4-[6-(3-Cyclohexylpropoxy)-1-benzofur-2-yl]-4-oxo-2-[2-(4-oxo-1,2,3-benzotriazin-3(4H)-yl)ethyl]butanoic acid] | 30 µM | > 40 µM | > 40 µM | > 40 µM
9 | O=C(CC(CCn1nnc2ccccc2c1=O)C(=O)O)c1coc2cc(OCCC3CCOCC3)ccc12 (racemic) [Example 74, (+/−)-4-Oxo-2-[2-(4-oxo-1,2,3-benzotriazin-3(4H)-yl)ethyl]-4-{6-[2-(tetrahydro-2H-pyran-4-yl)ethoxy]-1-benzofur-3-yl}butanoic acid] | 0.25 µM | 6.4 µM | 16 µM | > 40 µM

Continued by falling IC50 (MMP-13), values first:

Row | IC50 (MMP-13) | IC50 (MMP-16) | IC50 (MMP-3) | IC50 (MMP-1) | SMILES
10 | 13 µM | > 40 µM | > 40 µM | > 40 µM | O=C(CC(CCn1nnc2ccccc2c1=O)C(=O)O)c1cc2cc(OCC3CCOCC3)ccc2o1 (racemic) [Example 5, (+/−)-4-Oxo-2-[2-(4-oxo-1,2,3-benzotriazin-3(4H)-yl)ethyl]-4-[5-(tetrahydro-2H-pyran-4-ylmethoxy)-1-benzofur-2-yl]butanoic acid]
11 | 5.1 µM | > 40 µM | > 40 µM | > 40 µM | CCCCCCCOc1ccc2oc(C(=O)CC(CCn3nnc4ccccc4c3=O)C(=O)O)cc2c1 (racemic) [Example 31, (+/−)-4-[5-(Heptyloxy)-1-benzofur-2-yl]-4-oxo-2-[2-(4-oxo-1,2,3-benzotriazin-3(4H)-yl)ethyl]butanoic acid]
12 | 5 µM | > 40 µM | 27 µM | > 40 µM | O=C(CC(CCn1nnc2ccccc2c1=O)C(=O)O)c1cc2cc(OCCC3CCCC3)ccc2o1 (racemic) [Example 7, (+/−)-4-[5-(2-Cyclopentylethoxy)-1-benzofur-2-yl]-4-oxo-2-[2-(4-oxo-1,2,3-benzotriazin-3(4H)-yl)ethyl]butanoic acid]
13 | 4.7 µM | > 40 µM | 29 µM | > 40 µM | O=C(CC(CCn1nnc2ccccc2c1=O)C(=O)O)c1cc2ccc(OCCc3ccccc3)cc2o1 (racemic) [Example 73, (+/−)-4-Oxo-2-[2-(4-oxo-1,2,3-benzotriazin-3(4H)-yl)ethyl]-4-[6-(2-phenylethoxy)-1-benzofur-2-yl]butanoic acid]
14 | 2.2 µM | > 40 µM | 25 µM | > 40 µM | O=C(CC(CCn1nnc2ccccc2c1=O)C(=O)O)c1cc2cc(OCCc3ccc(Cl)cc3)ccc2o1 (racemic) [Example 2, (+/−)-4-{5-[2-(4-Chlorophenyl)ethoxy]-1-benzofur-2-yl}-4-oxo-2-[2-(4-oxo-1,2,3-benzotriazin-3(4H)-yl)ethyl]butanoic acid]
15 | 0.73 µM | > 40 µM | 26 µM | > 40 µM | O=C(CC(CCn1nnc2ccccc2c1=O)C(=O)O)c1cc2cc(OCCC3CCOCC3)ccc2o1 (racemic) [Example 6, (+/−)-4-Oxo-2-[2-(4-oxo-1,2,3-benzotriazin-3(4H)-yl)ethyl]-4-{5-[2-(tetrahydro-2H-pyran-4-yl)ethoxy]-1-benzofur-2-yl}butanoic acid]
